Source: ChEMBL document CHEMBL1681699 (Bioorg Med Chem, 2011)

What was measured:
[1] = Biodistribution in Sprague-Dawley rat hippocampus at 3.7 x 10^3 to 5.55 x 10'3 GBq, iv after 30 mins; assay type: ADME, organism-based; conditions: in vivo, 0.5 h
[2] = Biodistribution in Sprague-Dawley rat hippocampus at 3.7 x 10^3 to 5.55 x 10^3 GBq, iv after 60 mins; assay type: ADME, organism-based; conditions: in vivo, 1 h
Striatum [3] = test: Biodistribution in Sprague-Dawley rat striatum at 3.7 x 10^3 to 5.55 x 10^3 GBq, iv after 5 mins; assay type: ADME, organism-based; conditions: in vivo
Striatum [4] = test: Biodistribution in Sprague-Dawley rat striatum at 3.7 x 10^3 to 5.55 x 10'3 GBq, iv after 30 mins; assay type: ADME, organism-based; conditions: in vivo, 0.5 h
Striatum [5] = test: Biodistribution in Sprague-Dawley rat striatum at 3.7 x 10^3 to 5.55 x 10^3 GBq, iv after 60 mins; assay type: ADME, organism-based; conditions: in vivo, 1 h
Cerebellum [6] = test: Biodistribution in Sprague-Dawley rat cerebellum at 3.7 x 10'3 to 5.55 x 10^3 GBq, iv after 5 mins; assay type: ADME, organism-based; conditions: in vivo
Cerebellum [7] = test: Biodistribution in Sprague-Dawley rat cerebellum at 3.7 x 10'3 to 5.55 x 10'3 GBq, iv after 30 mins; assay type: ADME, organism-based; conditions: in vivo, 0.5 h
Cerebellum [8] = test: Biodistribution in Sprague-Dawley rat cerebellum at 3.7 x 10'3 to 5.55 x 10^3 GBq, iv after 60 mins; assay type: ADME, organism-based; conditions: in vivo, 1 h
[9] = Metabolic stability in Sprague-Dawley rat brain assessed as radioactive compound remaining after 2 mins; assay type: ADME, tissue-based; conditions: read-out: Stability
[10] = Metabolic stability in Sprague-Dawley rat brain assessed as radioactive compound remaining after 20 mins; assay type: ADME, tissue-based; conditions: read-out: Stability
[11] = Metabolic stability in Sprague-Dawley rat brain assessed as radioactive compound remaining after 40 mins; assay type: ADME, tissue-based; conditions: read-out: Stability
[12] = Metabolic stability in Sprague-Dawley rat brain assessed as radioactive compound remaining after 60 mins; assay type: ADME, tissue-based; conditions: read-out: Stability
Brain [13] = test: Metabolic stability in Sprague-Dawley rat brain assessed as 4-(1-Methyl-4-pyridin-4-yl-1H-pyrazol-3-yl)-phenol remaining after 2 mins; assay type: ADME, tissue-based
Brain [14] = test: Metabolic stability in Sprague-Dawley rat brain assessed as 4-(1-Methyl-4-pyridin-4-yl-1H-pyrazol-3-yl)-phenol remaining after 20 mins; assay type: ADME, tissue-based
Brain [15] = test: Metabolic stability in Sprague-Dawley rat brain assessed as 4-(1-Methyl-4-pyridin-4-yl-1H-pyrazol-3-yl)-phenol remaining after 40 mins; assay type: ADME, tissue-based
Brain [16] = test: Metabolic stability in Sprague-Dawley rat brain assessed as 4-(1-Methyl-4-pyridin-4-yl-1H-pyrazol-3-yl)-phenol remaining after 60 mins; assay type: ADME, tissue-based
[17] = Metabolic stability in Sprague-Dawley rat plasma assessed as radioactive compound remaining after 2 mins; assay type: ADME, cell-free; conditions: read-out: Stability
[18] = Metabolic stability in Sprague-Dawley rat plasma assessed as radioactive compound remaining after 20 mins; assay type: ADME, cell-free; conditions: read-out: Stability
[19] = Metabolic stability in Sprague-Dawley rat plasma assessed as radioactive compound remaining after 40 mins; assay type: ADME, cell-free; conditions: read-out: Stability
[20] = Metabolic stability in Sprague-Dawley rat plasma assessed as radioactive compound remaining after 60 mins; assay type: ADME, cell-free; conditions: read-out: Stability
Plasma [21] = test: Metabolic stability in Sprague-Dawley rat plasma assessed as 4-(1-Methyl-4-pyridin-4-yl-1H-pyrazol-3-yl)-phenol remaining after 2 mins; assay type: ADME, cell-free
Plasma [22] = test: Metabolic stability in Sprague-Dawley rat plasma assessed as 4-(1-Methyl-4-pyridin-4-yl-1H-pyrazol-3-yl)-phenol remaining after 20 mins; assay type: ADME, cell-free
Plasma [23] = test: Metabolic stability in Sprague-Dawley rat plasma assessed as 4-(1-Methyl-4-pyridin-4-yl-1H-pyrazol-3-yl)-phenol remaining after 40 mins; assay type: ADME, cell-free
Plasma [24] = test: Metabolic stability in Sprague-Dawley rat plasma assessed as 4-(1-Methyl-4-pyridin-4-yl-1H-pyrazol-3-yl)-phenol remaining after 60 mins; assay type: ADME, cell-free
Plasma [25] = test: Metabolic stability in Sprague-Dawley rat plasma assessed as 4-(1-Methyl-4-pyridin-4-yl-1H-pyrazol-3-yl)-phenol remaining retention time administered intravenously measured after 60 mins postinjection; assay type: ADME, organism-based; conditions: in vivo, iv
Plasma [26] = test: Metabolic stability in Sprague-Dawley rat plasma assessed as compound remaining retention time administered intravenously measured after 60 mins postinjection; assay type: ADME, organism-based; conditions: in vivo, iv, 1 h
Brain [27] = test: Metabolic stability in Sprague-Dawley rat brain assessed as 4-(1-Methyl-4-pyridin-4-yl-1H-pyrazol-3-yl)-phenol remaining retention time administered intravenously measured after 60 mins postinjection; assay type: ADME, organism-based; conditions: in vivo, iv
Brain [28] = test: Metabolic stability in Sprague-Dawley rat brain assessed as compound remaining retention time administered intravenously measured after 60 mins postinjection; assay type: ADME, organism-based; conditions: in vivo, iv, 1 h
Blood = test: Biodistribution in Sprague-Dawley rat blood at 3.7 x 10^3 to 5.55 x 10^3 GBq, iv after 5 mins; assay type: ADME, organism-based; conditions: in vivo

[11CH3]n1cc(-c2ccncc2)c(-c2ccc(OCc3ccc4ccccc4n3)cc2)n1
Drug uptake [1]: 0.05 % ID/g | Drug uptake [2]: 0.051 % ID/g | Drug uptake (Striatum [3]): 0.3 % ID/g | Drug uptake (Striatum [4]): 0.236 % ID/g | Drug uptake (Striatum [5]): 0.164 % ID/g | Drug uptake (Cerebellum [6]): 0.133 % ID/g | Drug uptake (Cerebellum [7]): 0.036 % ID/g | Drug uptake (Cerebellum [8]): 0.035 % ID/g | remaining at 2 min [9]: 98.7% | remaining at 20 min [10]: 94.8% | remaining at 40 min [11]: 84.7% | remaining at 1 h [12]: 78.6% | Activity (Brain [13]): 1.03% | Activity (Brain [14]): 3.45% | Activity (Brain [15]): 11.47% | Activity (Brain [16]): 15.87% | remaining at 2 min [17]: 98.3% | remaining at 20 min [18]: 74.2% | remaining at 40 min [19]: 52.6% | remaining at 1 h [20]: 49.3% | Activity (Plasma [21]): 1.23% | Activity (Plasma [22]): 19.13% | Activity (Plasma [23]): 35.19% | Activity (Plasma [24]): 40.72% | Time (Plasma [25]): 3 min | Time (Plasma [26]): 3 min | Time (Brain [27]): 10.5 min | Time (Brain [28]): 10.5 min | Drug uptake (Blood): 0.123 % ID/g
